Experimental data published in ChEMBL document CHEMBL4145662, “Novel Nonsteroidal Progesterone Receptor (PR) Antagonists with a Phenanthridinone Skeleton” (ACS Med Chem Lett, 2018).

Molecular target: T1, Progesterone receptor (Homo sapiens, UniProt P06401)
T1 sequence (P06401 whole entry): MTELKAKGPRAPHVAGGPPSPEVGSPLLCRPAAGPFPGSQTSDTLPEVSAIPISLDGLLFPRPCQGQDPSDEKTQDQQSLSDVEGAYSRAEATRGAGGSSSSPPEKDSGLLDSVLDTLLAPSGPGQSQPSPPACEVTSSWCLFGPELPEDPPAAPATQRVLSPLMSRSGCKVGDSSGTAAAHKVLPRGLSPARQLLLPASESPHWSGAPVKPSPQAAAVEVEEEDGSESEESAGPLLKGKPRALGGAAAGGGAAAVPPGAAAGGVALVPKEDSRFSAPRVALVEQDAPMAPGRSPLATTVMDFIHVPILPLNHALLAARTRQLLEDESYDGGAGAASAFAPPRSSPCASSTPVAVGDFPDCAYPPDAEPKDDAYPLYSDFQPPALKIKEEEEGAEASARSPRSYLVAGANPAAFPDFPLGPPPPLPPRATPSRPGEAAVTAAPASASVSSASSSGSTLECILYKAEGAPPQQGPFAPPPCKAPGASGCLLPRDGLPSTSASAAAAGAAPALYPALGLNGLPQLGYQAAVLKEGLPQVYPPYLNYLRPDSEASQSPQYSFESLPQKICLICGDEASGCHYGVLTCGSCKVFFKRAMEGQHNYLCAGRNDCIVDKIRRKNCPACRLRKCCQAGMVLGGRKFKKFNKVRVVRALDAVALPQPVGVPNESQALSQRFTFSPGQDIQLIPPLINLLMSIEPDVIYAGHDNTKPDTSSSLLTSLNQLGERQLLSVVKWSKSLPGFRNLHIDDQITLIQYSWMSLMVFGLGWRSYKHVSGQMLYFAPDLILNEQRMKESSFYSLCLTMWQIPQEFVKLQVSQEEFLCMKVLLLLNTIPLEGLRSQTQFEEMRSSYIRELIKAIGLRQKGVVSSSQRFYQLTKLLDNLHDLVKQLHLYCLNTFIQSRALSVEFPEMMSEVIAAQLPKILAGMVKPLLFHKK
Assay: Agonist activity at PR in human T47D cells at 10 uM; call rule not given here
Type: cell-based

Row | Activity | Compound
1 | Not Active | Cn1c(C#N)ccc1-c1ccc2oc(=O)ccc2c1
2 | Not Active | CC#C[C@]1(O)CC[C@H]2[C@@H]3CCC4=CC(=O)CCC4=C3[C@@H](c3ccc(N(C)C)cc3)C[C@@]21C [MIFEPRISTONE]
3 | Not Active | O=S(=O)(Nc1ccc(Oc2ccccc2)cc1)c1cccc(C(F)(F)F)c1

Molecular target: T1, Progesterone receptor
Assay: Antagonist activity at PR in human T47D cells assessed as inhibition of progesterone-induced alkaline phosphatase activity measured after 24 hrs
Type: cell-based

Row | IC50 [nM] | Compound
4 | 3800 | CCCn1c(=O)c2ccccc2c2cc(C(O)(C(F)(F)F)C(F)(F)F)ccc21
5 | 7900 | CCCCn1c(=O)c2ccccc2c2cc(C)ccc21
6 | 560 | CCCCn1c(=O)c2ccccc2c2cc(C(O)(C(F)(F)F)C(F)(F)F)cc(OC)c21
7 | 1000 | O=c1[nH]c2ccc(C(O)(C(F)(F)F)C(F)(F)F)cc2c2cc(F)ccc12
8 | 410 | CCCCn1c(=O)c2ccccc2c2cc(C(O)(C(F)(F)F)C(F)(F)F)c(OC)cc21
9 | 340 | Cn1c(=O)c2ccccc2c2cc(C(O)(C(F)(F)F)C(F)(F)F)ccc21
10 | 780 | O=c1[nH]c2ccc(C(O)(C(F)(F)F)C(F)(F)F)cc2c2ccccc12
11 | 123 | Cn1c(C#N)ccc1-c1ccc2oc(=O)ccc2c1
12 | 130 | O=c1[nH]c2c(F)cc(C(O)(C(F)(F)F)C(F)(F)F)cc2c2ccccc12
13 | 4000 | CCCCn1c(=O)c2ccccc2c2c(OC)c(C(O)(C(F)(F)F)C(F)(F)F)ccc21
14 | 107 | O=S(=O)(Nc1ccc(Oc2ccccc2)cc1)c1cccc(C(F)(F)F)c1
15 | 310 | O=c1[nH]c2ccc(C(O)(C(F)(F)F)C(F)(F)F)cc2c2ccc(F)cc12
16 | 360 | CCCc1cc(C(O)(C(F)(F)F)C(F)(F)F)cc2c1[nH]c(=O)c1ccccc12
17 | 1400 | CCn1c(=O)c2ccccc2c2cc(C(O)(C(F)(F)F)C(F)(F)F)ccc21
18 | 12000 | CCCCn1c(=O)c2c(OC)cccc2c2cc(C(O)(C(F)(F)F)C(F)(F)F)ccc21
19 | 270 | COc1cc(C(O)(C(F)(F)F)C(F)(F)F)cc2c1[nH]c(=O)c1ccccc12
20 | 210 | CCc1cc(C(O)(C(F)(F)F)C(F)(F)F)cc2c1[nH]c(=O)c1ccccc12
21 | 8600 | CCCCn1c(=O)c2ccccc2c2cc(CO)ccc21
22 | 10000 | CCCCCCCCCn1c(=O)c2ccccc2c2cc(C(O)(C(F)(F)F)C(F)(F)F)ccc21
23 | 8300 | CCCCn1c(=O)c2ccccc2c2cc(C(C)(C)C)ccc21
24 | 2500 | CCCCCCn1c(=O)c2ccccc2c2cc(C(O)(C(F)(F)F)C(F)(F)F)ccc21
25 | 2700 | CCCCn1c(=O)c2cccc(OC)c2c2cc(C(O)(C(F)(F)F)C(F)(F)F)ccc21
26 | 180 | Cc1cc(C(O)(C(F)(F)F)C(F)(F)F)cc2c3ccccc3c(=O)n(C)c12
27 | 7100 | CCCCn1c(=O)c2ccccc2c2ccccc21
28 | 1100 | CCCCn1c(=O)c2cc(OC)ccc2c2cc(C(O)(C(F)(F)F)C(F)(F)F)ccc21
29 | 730 | O=c1[nH]c2ccc(C(O)(C(F)(F)F)C(F)(F)F)cc2c2cccc(F)c12
30 | 7800 | CCCCn1c(=O)c2ccccc2c2cc(CC)ccc21
31 | 5800 | CCCCn1c(=O)c2ccc(OC)cc2c2cc(C(O)(C(F)(F)F)C(F)(F)F)ccc21

Row | Compound | IC50 [nM]
32 | CCCCn1c(=O)c2ccccc2c2cc(C(O)(C(F)(F)F)C(F)(F)F)ccc21 | 1200
